We go through 11 compounds from patent publication US20260285853A1, “COMPOUNDS AND METHODS FOR MODULATING SPLICING” (REMIX THERAPEUTICS INC., priority 2023, published 2026).

Common to all, as to format: cell-based
Assay [1] relates to SH-SY5Y (human neuroblastoma) cells. Briefly: Cell viability, Cell Titer Glo 2.0 assay. The settings on record: read-out: Viability SHSY5Y.3 GI50. In a few lines:
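Following a 72 h incubation (37 °C, 5% CO2, 0.1% DMSO final), compound toxicity toward SH-SY5Y cells was quantified by CellTiter-Glo 2.0.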
A general note: Cellular ATP, detected with luciferase, serves as a proxy for viable cell number.

In assay [2] the test system is HTT mRNA. Put plainly: Splicing RT-qPCR assay (THP), Table 2A. The settings on record: Table 2A (THP); for AC50: AJ mRNA increase, read-out: HTT AJ (increase in alternative junction mRNA, AC50); for IC50: CJ mRNA decrease, read-out: HTT CJ (decrease in canonical junction mRNA, IC50).
The test system of assay [3] is MYB mRNA. Put plainly: Splicing RT-qPCR assay (THP), Table 2A. As to conditions: Table 2A (THP); for AC50: AJ mRNA increase, read-out: MYB AJ (increase in alternative junction mRNA, AC50); for IC50: CJ mRNA decrease, read-out: MYB CJ (decrease in canonical junction mRNA, IC50).
Assay [4] deals with MYB mRNA. Put plainly: Splicing RT-qPCR assay, canonical (CJ) and alternative (AJ) junction mRNA, K562 cells. As to conditions: Homo sapiens, K562.3 cells, 24 hours; for AC50: read-out: MYB AJ (AC50, increase in AJ mRNA); for IC50: read-out: MYB CJ (IC50, decrease in CJ mRNA). In a few lines:
(§1)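 Plate K562 cells, add compound (top 10 uM final, DMSO ≤0.25%) and incubate 24 h. Lyse, run one-step RT-qPCR for CJ and AJ, normalize to GAPDH or GUSB, then to DMSO, and express as % response.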
A general note: Real-time PCR tracks product formation cycle by cycle.

For assay [5], the system named is HTT mRNA. The assay is described as above. As to conditions: Homo sapiens, K562.3 cells, 24 hours; for AC50: read-out: HTT AJ (AC50, increase in AJ mRNA); for IC50: read-out: HTT CJ (IC50, decrease in CJ mRNA). The method in brief:
as §1

Some results are limits rather than exact numbers.

`Cc1cn2cc(NC(=O)c3c(F)cc(N4CCNCC4)c4occc34)cc(F)c2n1` [Compound 247, 5-fluoro-N-(8-fluoro-2-methylimidazo-[1,2-a]pyridin-6-yl)-7-piperazin-1-yl-benzofuran-4-carboxamide]: in assay [1], the GI50 lay in the range of 1 to 10 µM. Besides, the AC50 with HTT mRNA [2], with MYB mRNA [3], in the assay on MYB mRNA [4] and with HTT mRNA [5] was more than 10 µM throughout. Further, the IC50 with HTT mRNA [2], in the assay on MYB mRNA [3], with MYB mRNA [4] and with HTT mRNA [5] was more than 10 µM in each case.
Consider `Cc1cn2cc(NC(=O)c3ccc(N4CCNC(C(F)(F)F)C4)c4cn(C)nc34)cc(F)c2n1` (stereo not drawn) [Compound 248, N-(8-fluoro-2-methyl-imidazo[1,2-a]-pyridin-6-yl)-2-methyl-4-[3-(trifluoro-methyl)piperazin-1-yl]indazole-7-carboxamide], for which, in assay [1], the GI50 is more than 10 µM. For the same compound, the half-maximal activity concentration (AC50) in the assay on HTT mRNA [2] was more than 10 µM; in the assay on MYB mRNA [3], 1 to 10 µM; in the assay with MYB mRNA [4] it was 1 to 10 µM; with HTT mRNA [5] it was more than 10 µM. The IC50 with HTT mRNA [2] was more than 10 µM; in the assay with MYB mRNA [3] it was more than 10 µM; in the assay with MYB mRNA [4], 1 to 10 µM; with HTT mRNA [5], more than 10 µM.
As for `Cc1cn2cc(NC(=O)c3ccc(N4CCNC(C(F)F)C4)c4cn(C)nc34)cc(F)c2n1` (stereo not drawn) [Compound 249, 4-[3-(difluoromethyl)piperazin-1-yl]-N-(8-fluoro-2-methylimidazo[1,2-a]pyridin-6-yl)-2-methyl-indazole-7-carboxamide], in assay [1], the GI50 was 1 to 10 µM. Also, the AC50 in the assay on HTT mRNA [2] is more than 10 µM; in the assay with MYB mRNA [3], 0.1 to 1 µM; with MYB mRNA [4], 0.1 to 1 µM; in the assay on HTT mRNA [5], 1 to 10 µM. In addition, the IC50 was 1 to 10 µM in the assay on HTT mRNA [2], 0.1 to 1 µM with MYB mRNA [3], 0.1 to 1 µM with MYB mRNA [4] and 1 to 10 µM in the assay on HTT mRNA [5].
Take `COc1cc(N2CCNCC2)c2cn(C)nc2c1C(=O)Nc1cc(F)c2nc(C)cn2c1` [Compound 250, N-(8-fluoro-2-methyl-imidazo[1,2-a]pyridin-6-yl)-6-methoxy-2-methyl-4-piperazin-1-yl-indazole-7-carboxamide]: the GI50 in assay [1] is more than 10 µM. The AC50 in the assay with HTT mRNA [2] is more than 10 µM; with MYB mRNA [3], 1 to 10 µM; in the assay with MYB mRNA [4], more than 10 µM; with HTT mRNA [5] it was more than 10 µM. Further, the IC50 in the assay with HTT mRNA [2] is more than 10 µM; in the assay on MYB mRNA [3], 1 to 10 µM; in the assay on MYB mRNA [4], more than 10 µM; in the assay with HTT mRNA [5] it was more than 10 µM.
As to `Cc1cn2cc(NC(=O)c3ccc(N4CCNCC4=O)c4cn(C)nc34)cc(F)c2n1` [Compound 251, N-(8-fluoro-2-methylimidazo[1,2-a]-pyridin-6-yl)-2-methyl-4-(2-oxopiperazin-1-yl)-2H-indazole-7-carboxamide 2,2,2-trifluoroacetate], the GI50 in assay [1] was more than 10 µM. The AC50 with HTT mRNA [2], with MYB mRNA [3], with MYB mRNA [4] and in the assay with HTT mRNA [5] was more than 10 µM each time. The IC50 with HTT mRNA [2], in the assay with MYB mRNA [3], in the assay on MYB mRNA [4] and in the assay on HTT mRNA [5] was more than 10 µM throughout.
In the case of `Cc1cn2cc(NC(=O)c3ccc(N4C[C@@H](C)N[C@@H](C)C4)c4nn(C)nc34)cc(F)c2n1` [Compound 252, 7-((3S,5R)-3,5-dimethyl-piperazin-1-yl)-N-(8-fluoro-2-methyl-imidazo[1,2-a]pyridin-6-yl)-2-methyl-2H-benzo[d][1,2,3]triazole-4-carboxamide 2,2,2-trifluoroacetate], the GI50 in assay [1] is 1 to 10 µM. The AC50 in the assay with HTT mRNA [2] lay within 1 to 10 µM; with MYB mRNA [3], 0.1 to 1 µM; in the assay with MYB mRNA [4] it was 0.1 to 1 µM; in the assay with HTT mRNA [5], 0.1 to 1 µM. For the same compound, the IC50 with HTT mRNA [2], in the assay with MYB mRNA [3], with MYB mRNA [4] and in the assay with HTT mRNA [5] was 0.1 to 1 µM in each case.
Consider `Cc1cn2cc(NC(=O)c3ccc(N4CCNCC4=O)c4[nH]cnc34)cc(F)c2n1` [Compound 257, N-(8-fluoro-2-methyl-imidazo[1,2-a]-pyridin-6-yl)-7-(2-oxopiperazin-1-yl)-1H-benzimidazole-4-carboxamide], for which the GI50 in assay [1] was more than 10 µM. Further, the AC50 in the assay on HTT mRNA [2], in the assay with MYB mRNA [3], in the assay on MYB mRNA [4] and with HTT mRNA [5] was more than 10 µM each time. In addition, the IC50 in the assay with HTT mRNA [2], in the assay with MYB mRNA [3], in the assay on MYB mRNA [4] and in the assay on HTT mRNA [5] was more than 10 µM throughout.
Take `Cc1cn2cc(NC(=O)c3ccc(N4C[C@@H](C)N[C@@H](C)C4)c4nnn(C)c34)cc(F)c2n1` [Compound 261, 7-[(3R,5S)-3,5-dimethylpiperazin-1-yl]-N-(8-fluoro-2-methyl-imidazo[1,2-a]pyridin-6-yl)-3-methyl-benzotriazole-4-carboxamide]: the GI50 in assay [1] was more than 10 µM. Besides, the AC50 in the assay with HTT mRNA [2], with MYB mRNA [3], in the assay with MYB mRNA [4] and with HTT mRNA [5] was more than 10 µM in each case. The IC50 in the assay with HTT mRNA [2], in the assay on MYB mRNA [3], in the assay with MYB mRNA [4] and in the assay with HTT mRNA [5] was more than 10 µM each time.
Take `CO[C@H]1C[C@H](N[C@H]2CCN(c3ccc(C(=O)Nc4cc(F)c5nc(C)cn5c4)c4nn(C)cc34)C2)C1` [Compound 275, N-(8-fluoro-2-methylimidazo[1,2-a]pyridin-6-yl)-4-((S)-3-(((1r,3S)-3-methoxycyclobutyl)amino)pyrrolidin-1-yl)-2-methyl-2H-indazole-7-carboxamide]: the GI50 in assay [1] lay in the range of 1 to 10 µM. The AC50 in the assay on HTT mRNA [2] was 1 to 10 µM; in the assay with MYB mRNA [3] it was 0.1 to 1 µM; in the assay on MYB mRNA [4], 0.1 to 1 µM; with HTT mRNA [5], 1 to 10 µM. The IC50 fell in the range of 1 to 10 µM with HTT mRNA [2], 0.1 to 1 µM in the assay on MYB mRNA [3], 0.1 to 1 µM in the assay with MYB mRNA [4] and 1 to 10 µM in the assay on HTT mRNA [5].
As for `CO[C@H]1C[C@@H](N[C@H]2CCN(c3ccc(C(=O)Nc4cc(F)c5nc(C)cn5c4)c4nn(C)cc34)C2)C1` [Compound 277, N-(8-fluoro-2-methylimidazo[1,2-a]pyridin-6-yl)-4-((S)-3-(((1s,3R)-3-methoxy-cyclobutyl)amino)pyrrolidin-1-yl)-2-methyl-2H-indazole-7-carboxamide], the GI50 in assay [1] was 1 to 10 µM. Further, the AC50 with HTT mRNA [2] is 1 to 10 µM; in the assay with MYB mRNA [3] it was 0.1 to 1 µM; with MYB mRNA [4], 0.1 to 1 µM; in the assay with HTT mRNA [5], less than 0.1 µM. Further, the IC50 in the assay on HTT mRNA [2] lay in the range of 1 to 10 µM; in the assay on MYB mRNA [3], 0.1 to 1 µM; in the assay on MYB mRNA [4], 0.1 to 1 µM; in the assay on HTT mRNA [5] it was 1 to 10 µM.
For the compound `Cc1cn2cc(NS(=O)(=O)c3ccc(N4C[C@@H](C)N[C@@H](C)C4)c4cn(C)nc34)cc(F)c2n1` [Compound 279], the GI50 in assay [1] is more than 10 µM. The AC50 with HTT mRNA [2], in the assay on MYB mRNA [3], in the assay with MYB mRNA [4] and in the assay on HTT mRNA [5] was more than 10 µM each time. In addition, the IC50 in the assay with HTT mRNA [2], in the assay with MYB mRNA [3], in the assay with MYB mRNA [4] and with HTT mRNA [5] was more than 10 µM in each case.

As a reminder, the GI50 is the concentration that inhibits growth by half. What is called AC50 is the concentration at which the activity in the assay is half-maximal. The term IC50 denotes the concentration at which inhibition is half-maximal.
